The record followed here is patent publication US12391683B2, “Therapeutic compounds and methods” (Actio Biosciences, Inc., priority 2022, dated 2025).

The experiment deals with T1, TRPC3 channels (Homo sapiens, UniProt Q13507).
T1 construct: expressed in transfected cells; host or cells: HEK293
T1 sequence (Q13507 1-921): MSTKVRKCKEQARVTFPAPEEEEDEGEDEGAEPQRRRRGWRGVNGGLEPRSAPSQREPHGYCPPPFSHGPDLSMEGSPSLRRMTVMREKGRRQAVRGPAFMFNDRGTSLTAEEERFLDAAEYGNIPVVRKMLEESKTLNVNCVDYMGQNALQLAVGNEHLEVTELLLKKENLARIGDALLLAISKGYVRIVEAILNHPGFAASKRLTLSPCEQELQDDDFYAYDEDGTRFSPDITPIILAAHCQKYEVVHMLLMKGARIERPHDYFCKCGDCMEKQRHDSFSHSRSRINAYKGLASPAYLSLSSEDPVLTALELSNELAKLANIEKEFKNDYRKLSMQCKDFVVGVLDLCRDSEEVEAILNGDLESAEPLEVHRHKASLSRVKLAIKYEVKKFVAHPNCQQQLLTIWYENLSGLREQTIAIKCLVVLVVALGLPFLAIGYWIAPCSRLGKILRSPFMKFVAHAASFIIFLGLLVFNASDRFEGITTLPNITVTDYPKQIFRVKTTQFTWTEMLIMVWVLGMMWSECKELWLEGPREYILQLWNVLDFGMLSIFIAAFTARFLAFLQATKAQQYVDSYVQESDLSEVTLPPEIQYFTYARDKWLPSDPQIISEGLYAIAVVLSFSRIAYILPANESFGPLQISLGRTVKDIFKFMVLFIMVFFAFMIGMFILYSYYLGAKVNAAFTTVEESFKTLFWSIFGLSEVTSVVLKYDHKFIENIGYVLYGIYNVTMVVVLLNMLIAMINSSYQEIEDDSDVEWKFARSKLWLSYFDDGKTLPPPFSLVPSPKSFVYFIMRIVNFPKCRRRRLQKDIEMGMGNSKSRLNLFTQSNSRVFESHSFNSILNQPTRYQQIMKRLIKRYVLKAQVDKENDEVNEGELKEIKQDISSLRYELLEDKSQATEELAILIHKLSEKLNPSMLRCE
The experiment can be described thus: TRP Family FLIPR Assay, TRPC3. Type of experiment: cell-based. The settings on record: HEK293 cells. Here is the method:
The compound of Example 5 was tested for selectivity against a panel of Human TRP family ion channels in a TRP Family FLIPR Assay as described below. • 1. TRPC3 channels (human TRPC3 variant 1 gene, expressed in HEK293 cells). • 2. TRPC4 channels (human TRPC4 gene, expressed in HEK293 cells). • 3. TRPC5 channels (human TRPC5 gene, expressed in HEK293 cells). • 4. TRPC6 channels (human TRPC6 gene, expressed in HEK293 cells). • 5. TRPM2 channels (human TRPM2 gene, transiently expressed in HEK293 cells). • 6. TRPM3 channels (human TRPM3 gene, transiently expressed in HEK293 cells). • 7. TRPM4 channels (human TRPM4 gene, expressed in CHO cells). • 8. […]
Data acquisition was performed via the FLIPR Control software supplied with the FLIPR System (MDS-AT) and data was analyzed using Microsoft Excel (Microsoft Corp., Redmond, WA) or GraphPad Prism. […]
[formula] where Base is the response at low concentrations of test article, Max is the maximum response at high concentrations, xhalf the EC50, or IC50, the concentration of test article producing either half-maximal activation or inhibition, and rate is the Hill coefficient. […] No assumptions about the fit parameters was made; the fit parameters were determined by the algorithm.
The effect of each test article was evaluated at eight (8) concentrations: 0.003, 0.01, 0.03, 0.1, 0.3, 1, 3 and 10 μM, n≤4 wells/concentration). […]

Molecules are shown by their SMILES. pEC50, pIC50: −log10 of the molar value. Some results are limits rather than exact numbers.

For orientation: pEC50 means −log10 of the EC50, conventionally taken in molar units. The pIC50 is the IC50 on a negative log10 scale, so that one unit is a factor of ten. As to `CC(C)(O)c1cnc(N2C[C@@]3(CC[C@@H](F)[C@](C)(Cn4cnc5ccc(C#N)cc54)C3)OC2=O)cn1` (single isomer, unassigned) [Example 5], where the note is “agonist mode, vs EMAX of GSK1702934A 30 μM, read-out: EC50 hTRPC3”, the pEC50 is less than 5.00. Besides, the pIC50 (antagonist mode, activated with 15 μM GSK1702934A, 0.003-10 μM, read-out: IC50 hTRPC3) was less than 5.00.
